Test: organoleptic research (sweetness compared with sucrose)
Conditions: reference sucrose

COC(=O)[C@@H](NC(=O)[C@H](CC(=O)O)NC(=O)NC=O)c1ccccc1 [II, N-(N'-formyl)-carbamyl-L-alpha-aspartyl-L-phenylglycinemethylester]
sweetness relative to sucrose: 200 times sweeter than sucrose

— patent US4371464A, “Dipeptide sweetener” (Stamicarbon, B.V., priority 1980, dated 1983)
